Source: US20210046084A1, “TREATMENT OF ADVANCED ESTROGEN RECEPTOR POSITIVE BREAST CANCER” (ESTETRA SPRL, priority 2018, published 2021)
Like-named read-outs stand apart in the source and are kept apart here.

Assays:
[1] = tested on: long term estrogen deprived MCF7 breast cancer cells (LTED cells); test: Growth of long term estrogen deprived MCF7 cells, cell count analysis; type: cell-based; conditions: for Cell number per well: LTED cells, count on Day 7, control 5.36
Experimental: In order to assess the potential of an estetrol component to inhibit the growth of estrogen deprived breast cancer cells, in vitro studies in long term estrogen deprived MCF7 breast cancer cells (LTED cells) were conducted. LTED cells are deprived of estrogen, making them a suitable in vitro model to study drug effects in women who have been using estrogen activity suppressors for a long time.
LTED cells were plated in 6-well plates at a density of 30,000 cells per well. The cells were maintained in phenol red free IMEM with 5% charcoal stripped FBS (DCC-FBS). On Day 3, the medium was replaced with fresh phenol red free IMEM with 5% DCC-FBS. The cells were then exposed to 6 different concentrations of estetrol ranging from 10^−12 M to 10^−7 M or to ethanol as vehicle control. The final vehicle concentration was 0.1% ethanol for all experiments. Each treatment was made in duplicate.
On Day 5, the medium was changed and on Day 7 plates were subjected to a cell count analysis.

[2] = Plasma levels and tolerability of estetrol after daily oral administration in female patients; type: in vivo, human; conditions: for Trough plasma level: average of Day 7 and Day 14; for Cmax: human, plasma, read-out: Cmax plasma level
Experimental: For each group dosed at 2, 10, 20 and 40 mg estetrol daily (oral administration), 9 to 10 female patients were tested for their plasma content in estetrol at Day 7 and at Day 14. For each dose group, the average trough level of all patients across both days was calculated.

[3] = tested on: ER+ locally advanced and/or metastatic breast cancer; test: Phase I/IIa dose-escalation study of E4 in advanced breast cancer (patient of Example 4); type: in vivo, human; conditions: 20 mg E4 per day oral, 12 weeks
Experimental: An open-label, phase I/11a trial, dose-escalation study with a 3+3 cohort design is carried out to determine the recommended dose of E4 for the treatment of patients with advanced breast cancer. After completing the phase I part of the study (i.e. 4 weeks of treatment), patients receive further treatment for 8 weeks at their individual phase I dose level (phase IIa part of the study). Patients are treated for 12 weeks. Treatment continues after 12 weeks of treatment until the patient is withdrawn from the study either due to unacceptable adverse events (AEs) or disease progression. These patients are followed up according to clinical practice including radiological tumour assessments.
In total at least 9 patients with ER+ locally advanced and/or metastatic breast cancer having exhausted all treatment options are enrolled in the study. Patients are at least 5 years postmenopausal and have failed anti-estrogen treatment with tamoxifen and aromatase inhibitor because the cancer has become resistant to treatment with tamoxifen or aromatase inhibitor, or because the patient has discontinued treatment due to unacceptable side-effects. No treatment with fulvestrant is allowed within 6 months prior to the start of the E4 treatment.
• to assess quality of life in advanced breast cancer patients treated with E4, using specific questions on estrogen deficiency symptoms; • to assess preliminary anti-tumour response of E4 in patients with advanced breast cancer, according to RECIST 1.1 at the end of the study (i.e. after 12 weeks); • to assess the trough (Cmin) levels of E4 in patients with advanced breast cancer, by measuring E4 plasma concentrations before dosing at different time points during the study.
• to evaluate the safety profile of E4 in patients with advanced breast cancer by: • Performing routine laboratory parameters; • Performing physical examination; • Measuring vital signs; • Measuring electrocardiograms (ECGs); • Recording and monitoring of incidence and severity of clinical AEs and SAEs; • Radiological tumour assessments.
After completing the phase I part of the study (i.e. 4 weeks of treatment), patients receive further treatment for 8 weeks at their individual phase I dose level (phase IIa part of the study). The phase IIa part of the study includes explorative efficacy assessments to evaluate potential anti-tumour effects of E4 by RECIST criteria based on evaluation of pre- and end of treatment imaging.
Treatment is escalated in doses of 20 mg, 40 mg and 60 mg E4 across cohorts according to the 3+3 design until the non-tolerable dose is determined or the maximum anticipated dose (MAD) of 60 mg is reached. Patients are treated once daily with an oral administration of E4. […]

[4] = molecular target: T1, SHBG (Homo sapiens, UniProt P04278); conditions: cited from earlier work
T1 sequence (P04278 30-402): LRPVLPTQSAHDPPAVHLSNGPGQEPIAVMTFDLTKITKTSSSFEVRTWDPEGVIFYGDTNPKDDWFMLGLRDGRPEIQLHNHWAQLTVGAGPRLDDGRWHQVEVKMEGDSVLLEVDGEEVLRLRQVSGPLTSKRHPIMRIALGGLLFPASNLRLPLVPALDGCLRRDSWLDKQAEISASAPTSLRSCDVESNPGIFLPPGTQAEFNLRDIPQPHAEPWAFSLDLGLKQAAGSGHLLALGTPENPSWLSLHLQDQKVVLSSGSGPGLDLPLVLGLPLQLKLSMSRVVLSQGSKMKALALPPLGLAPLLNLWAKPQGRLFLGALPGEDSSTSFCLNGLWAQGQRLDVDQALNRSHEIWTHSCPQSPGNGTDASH

C[C@]12CC[C@@H]3c4ccc(O)cc4CC[C@H]3[C@@H]1[C@@H](O)[C@@H](O)[C@@H]2O [estetrol, estra-1,3,5(10)-triene-3,15α,16α,17β-tetrol]
Cell number per well ([1]; 10^−7 M estetrol): 0.49 ×10^5
Cell number per well ([1]; 10^−8 M estetrol): 0.59 ×10^5
Cell number per well ([1]; 10^−9 M estetrol): 0.56 ×10^5
Cell number per well ([1]; 10^−10 M estetrol): 0.63 ×10^5
Cell number per well ([1]; 10^−11 M estetrol): 3.62 ×10^5
Cell number per well ([1]; 10^−12 M estetrol): 5.58 ×10^5
Inhibition of growth of LTED cells ([1]; 10^−12 M to 10^−7 M): able to inhibit the growth of LTED cells
Concentration at which peak inhibition of LTED cell growth is observed ([1]; no further inhibition at higher concentrations): 10^−10 M
Trough plasma level ([2]; 2 mg daily oral dose): 240 pg/mL
Cmax plasma level ([2]; 10 mg daily oral dose): 9,500 pg/mL
Trough plasma level ([2]; 20 mg daily oral dose): 1,950 pg/mL
Trough plasma level ([2]; 40 mg daily oral dose): 5,070 pg/mL
Tolerability ([2]; 2, 10, 20 and 40 mg daily oral): well tolerated
Cmax ([2]; 2 mg daily oral dose): 1.3 ng/mL
Cmax ([2]; 20 mg daily oral dose): 23.5 ng/mL
Cmax ([2]; 40 mg daily oral dose): 82.7 ng/mL
Effect on quality of life (QOL) [3]: advantageous effect
Adverse event considered related to treatment ([3]; only one related AE, patient): breast tenderness with mild intensity
Tolerability of treatment ([3]; patient): tolerated the treatment very well
Tumour burden during treatment ([3]; progressive disease at start): remained stable
Binding to SHBG [4]: does not bind to SHBG

C[C@]12CC[C@@H]3c4ccc(O)cc4CC[C@H]3[C@@H]1CC[C@@H]2O [estradiol, 17beta-estradiol, reference compound]
Binding to SHBG (affinity) ([4]; Hammond G L et al., Climacteric 2008): about 40%
